Results taken from patent US11098062B2, “Monocyclic and bicyclic ring system substituted carbanucleoside analogues for use as PRMT5 inhibitors” (Janssen Pharmaceutica NV, priority 2016, dated 2021).

Target: T1, PRMT5-MEP50 enzyme (Homo sapiens, UniProt O14744)
T1 construct: One virus expresses full length human PRMT5 with Flag-tag at N-terminus; Flag (N); purchased Charles River (Argenta); host or cells: insect cells (Sf9), baculovirus co-infection
Assay: In vitro assay 1b: PRMT5-MEP50 high throughput mass spectrometer assay (SAH formation), 1.25 nM enzyme
Format: biochemical
Conditions: 1.25 nM enzyme, 1 μM SAM, 0.3 μM H2A, 30° C., 120 min; averaged values; read-out: pIC50 Assay 1b (converted)
Source text: Experimental Procedures In Vitro Assay (Assay 1a and 1b)
PRMT5-MEP50 enzyme was purchased from Charles River (Argenta). The enzyme complex was produced in insect cells (Sf9) infected simultaneously with two baculoviruses. One virus expresses full length human PRMT5 with Flag-tag at N-terminus, the second virus expresses full length MEP50 with His6-TEV cleavage at N-terminus. The protein was affinity purified using anti-Flag (M2) beads eluted with 3×FLAG peptide, followed by His-Select eluted with 0.5M imidazole. Eluted protein was then dialysed against tris-buffered saline (TBS) (pH 8.0) containing 20% glycerol and 3 mM dithiothreitol (DTT).
Full-length untagged human recombinant histone H2A (residues 1-130, Genbank Accession #NM_021052, MW=14.1 kDa) expressed in E. coli was purchased from Reaction Biology Corporation, Cat #HMT-11-146. Reagents used for making reaction buffer or stopping reaction were purchased including Tris base (Sigma Cat #T-1503), NaCl (Sigma Cat #RGF-3270), MgCl2 (Sigma Cat #M0250), DTT (Invitrogen Cat #15508-013) and Formic Acid (Riedel deHaen, Cat #33015)
PRMT5 catalyzes the sequential methylations of the terminal nitrogen atoms on the guanidine groups of arginine residues within proteins using co-substrate S-adenosyl-L-methionine (AdoMet, SAM), forming mono-methyl (MMA), syrmmetric-dimethyl arginine (sDMA) and S-adenosyl-L-homocysteine (AdoHcy, SAH). The enzyme activity was determined by following the product SAH formation using high throughput mass spectrometry (Agilent Rapidfire 300 System coupled to a Sciex 4000 series QTrap® triple-quad MS/MS). The reaction buffer was 20 mM Tris-HCl, pH 8.5, 50 mM NaCl, 5 mM MgCl2 and 1 mM DTT. The reaction activity was stopped using 1% formic acid (final concentration).
The IC50 Studies were performed using eleven point dosing series made for each compound by serially diluted 1:2 in dimethyl sulfoxide (DMSO), with point 12 being a DMSO control. Compounds were first spotted to plates, and followed by addition of 2 μM SAM and 0.6 μM H2A (histone H2A) solution mixture. The same volume of enzyme solution was added to initiate the enzymatic reactions. The final concentrations of the reaction are at 1 μM SAM, 0.3 μM H2A and 10 nM enzyme (assay 1a) or or 1.25 nM enzyme (assay 1b). The reaction was incubated at 30° C. for 60 minutes (min) when 10 nM enzyme was used and for 120 min when 1.25 nM enzyme was used. Subsequently, the reaction was quenched by addition of formic acid to a final concentration of 1%. The inhibitions of SAH formation in the presence of compounds were calculated as a percentage of the control relative to the uninhibited reaction as a function of inhibitor concentration. The data were fit as follows: Y=Bottom+(Top−Bottom)/(1+10^((log IC50−X)*h))
where IC50 is the inhibitor concentration (same unit as X) at 50% inhibition and h is the Hill slope. Y is percent of inhibition, X is log of compound concentration. Bottom and Top are the plateaus in same units as Y.

T1 sequence (O14744 whole entry): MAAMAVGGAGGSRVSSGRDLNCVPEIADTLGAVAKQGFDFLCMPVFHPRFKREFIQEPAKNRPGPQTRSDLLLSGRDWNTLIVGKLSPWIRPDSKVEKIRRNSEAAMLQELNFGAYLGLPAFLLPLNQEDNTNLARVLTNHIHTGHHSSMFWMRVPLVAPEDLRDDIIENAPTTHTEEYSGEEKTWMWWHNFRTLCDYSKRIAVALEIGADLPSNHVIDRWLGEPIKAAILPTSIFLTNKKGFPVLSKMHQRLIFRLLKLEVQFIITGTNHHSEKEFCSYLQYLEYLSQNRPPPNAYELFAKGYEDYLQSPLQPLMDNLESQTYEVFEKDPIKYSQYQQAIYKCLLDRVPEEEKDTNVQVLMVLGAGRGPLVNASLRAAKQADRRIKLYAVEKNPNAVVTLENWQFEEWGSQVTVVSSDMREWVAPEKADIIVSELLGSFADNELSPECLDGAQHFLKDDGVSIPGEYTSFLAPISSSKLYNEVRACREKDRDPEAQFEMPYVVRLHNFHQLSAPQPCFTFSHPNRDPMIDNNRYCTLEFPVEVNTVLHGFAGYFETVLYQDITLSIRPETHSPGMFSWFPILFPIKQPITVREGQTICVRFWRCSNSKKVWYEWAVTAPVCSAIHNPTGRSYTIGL
T1 sequence (Q9BQA1 whole entry partner): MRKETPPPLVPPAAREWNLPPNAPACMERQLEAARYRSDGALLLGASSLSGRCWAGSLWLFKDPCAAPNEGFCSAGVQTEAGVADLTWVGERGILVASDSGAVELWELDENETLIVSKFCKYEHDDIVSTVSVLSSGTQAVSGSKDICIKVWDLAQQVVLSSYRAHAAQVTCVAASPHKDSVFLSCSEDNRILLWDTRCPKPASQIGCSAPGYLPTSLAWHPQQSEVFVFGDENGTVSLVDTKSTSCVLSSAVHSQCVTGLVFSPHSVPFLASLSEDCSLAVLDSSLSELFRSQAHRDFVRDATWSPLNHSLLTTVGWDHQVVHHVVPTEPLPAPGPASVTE

Point of comparison: `Nc1ncnc2c1ccn2[C@@H]1C[C@H](CCCCc2ccncc2)[C@@H](O)[C@H]1O` [Compound 63], IC50 2000 nM. Against it:
- Nc1ncnc2c1ccn2[C@@H]1C[C@H](CCCc2ccncc2)[C@@H](O)[C@H]1O [Compound 49] — higher, > 2510 nM
- Nc1ncnc2c1ccn2[C@@H]1C[C@H](CCCc2cnc3ccccc3c2)[C@@H](O)[C@H]1O [Compound 43] — 8-fold lower, 251 nM
- Nc1ncnc2c1ccn2[C@@H]1C[C@H](CCCCc2cccc3cccnc23)[C@@H](O)[C@H]1O [Compound 58] — higher, > 2510 nM
- Nc1ncnc2c1ccn2[C@@H]1C[C@H](CCc2cnc3c(c2)OCCN3)[C@@H](O)[C@H]1O [Compound 72] — 160-fold lower, 12.6 nM
- Nc1ncnc2c1ccn2[C@@H]1C[C@H](CCc2cnc(Nc3ccc(Cl)cc3)nc2)[C@@H](O)[C@H]1O [Compound 70] — 4-fold lower, 501 nM
- Nc1ncnc2c1ccn2[C@@H]1C[C@H](CCc2cccnc2)[C@@H](O)[C@H]1O [Compound 67] — 4-fold lower, 501 nM
- Cc1cn2ccc(OC[C@H]3C[C@@H](n4ccc5c(N)ncnc54)[C@H](O)[C@@H]3O)cc2n1 [Compound 33] — 400-fold lower, 5.01 nM
- Nc1ncnc2c1ccn2[C@@H]1C[C@H](CCc2cnc3c(c2)CCN3)[C@@H](O)[C@H]1O [Compound 73] — 80-fold lower, 25.1 nM
- Nc1cc(CCCC[C@H]2C[C@@H](n3ccc4c(N)ncnc43)[C@H](O)[C@@H]2O)ccn1 [Compound 57] — 25-fold lower, 79.4 nM
- Nc1ncnc2c1ccn2[C@@H]1C[C@H](CCCCc2cccc3ccncc23)[C@@H](O)[C@H]1O [Compound 66] — 50-fold lower, 39.8 nM
- Nc1ncnc2c1ccn2[C@@H]1C[C@H](CCCCc2ccn3ccnc3c2)[C@@H](O)[C@H]1O [Compound 61] — 250-fold lower, 7.94 nM
- Nc1ncnc2c1ccn2[C@@H]1C[C@H](CCCCc2ccccn2)[C@@H](O)[C@H]1O [Compound 64] — 20-fold lower, 100 nM
- Nc1ncnc2c1ccn2[C@@H]1C[C@H](CCCCc2cnc3ccccc3c2)[C@@H](O)[C@H]1O [Compound 62] — 2.5-fold lower, 794 nM
- Nc1ncc(CC[C@H]2C[C@@H](n3ccc4c(N)ncnc43)[C@H](O)[C@@H]2O)cn1 [Compound 69] — the same, 2000 nM
- Nc1cc2cccc(CCCC[C@H]3C[C@@H](n4ccc5c(N)ncnc54)[C@H](O)[C@@H]3O)c2cn1 [Compound 54] — 20-fold lower, 100 nM
- Nc1ncnc2c1ccn2[C@@H]1C[C@H](CCCCc2cnc3c(N)cccc3c2)[C@@H](O)[C@H]1O [Compound 59] — the same, 2000 nM
- Nc1ncnc2c1ccn2[C@@H]1C[C@H](CCC2=CC3=NC(=O)CN3C=C2)[C@@H](O)[C@H]1O [Compound 71] — 20-fold lower, 100 nM
- Nc1ncnc2c1ccn2[C@@H]1C[C@H](CCCc2cnc3c(N)cccc3c2)[C@@H](O)[C@H]1O [Compound 44] — within 1.5-fold, 1580 nM
- Nc1ncnc2c1ccn2[C@@H]1C[C@H](CCc2ccn3cc(C(F)(F)F)nc3c2)[C@@H](O)[C@H]1O [Compound 23] — 50-fold lower, 39.8 nM
- Nc1ccc(CCC[C@H]2C[C@@H](n3ccc4c(N)ncnc43)[C@H](O)[C@@H]2O)cn1 [Compound 53] — 1000-fold lower, 2 nM
- Nc1ncnc2c1ccn2[C@@H]1C[C@H](CCCc2cccc3ccncc23)[C@@H](O)[C@H]1O [Compound 51] — 6.3-fold lower, 316 nM
- Nc1ncnc2c1ccn2[C@@H]1C[C@H](Cn2ccc3ccncc32)[C@@H](O)[C@H]1O [Compound 75] — 8-fold lower, 251 nM
- Nc1ccc(CCCC[C@H]2C[C@@H](n3ccc4c(N)ncnc43)[C@H](O)[C@@H]2O)cn1 [Compound 56] — 250-fold lower, 7.94 nM
- Nc1ncnc2c1ccn2[C@@H]1C[C@H](CCCc2cccc3cccnc23)[C@@H](O)[C@H]1O [Compound 52] — higher, > 2510 nM
- Nc1cccc(CCCC[C@H]2C[C@@H](n3ccc4c(N)ncnc43)[C@H](O)[C@@H]2O)n1 [Compound 55] — 5000-fold lower, 0.398 nM
- Nc1cc(/C=C/[C@H]2C[C@@H](n3ccc4c(N)ncnc43)[C@H](O)[C@@H]2O)ccn1 [Compound 36] — the same, 2000 nM
- Nc1ncnc2c1ccn2[C@@H]1C[C@H](CCCc2ccc3cccnc3c2)[C@@H](O)[C@H]1O [Compound 47] — within 1.5-fold, 1580 nM
- Nc1ccc2cccc(CCCC[C@H]3C[C@@H](n4ccc5c(N)ncnc54)[C@H](O)[C@@H]3O)c2n1 [Compound 65] — 200-fold lower, 10 nM
- CC(=O)Nc1cn2ccc(CC[C@H]3C[C@@H](n4ccc5c(N)ncnc54)[C@H](O)[C@@H]3O)cc2n1 [Compound 31] — 32-fold lower, 63.1 nM
- Nc1cc(CCC[C@H]2C[C@@H](n3ccc4c(N)ncnc43)[C@H](O)[C@@H]2O)ccn1 [Compound 45] — 4-fold lower, 501 nM
- CC(c1cncn1C)[C@H]1C[C@@H](n2ccc3c(N)ncnc32)[C@H](O)[C@@H]1O (stereo partly drawn) [Compound 39] — the same, 2000 nM
- Nc1ncnc2c1ccn2[C@@H]1C[C@H](CCCc2ccn3ccnc3c2)[C@@H](O)[C@H]1O [Compound 48] — 63-fold lower, 31.6 nM
- Nc1cccc(CCC[C@H]2C[C@@H](n3ccc4c(N)ncnc43)[C@H](O)[C@@H]2O)n1 [Compound 40] — 25-fold lower, 79.4 nM
- Nc1ncnc2c1ccn2[C@@H]1C[C@H](CCCCc2ccc3cccnc3c2)[C@@H](O)[C@H]1O [Compound 60] — 8-fold lower, 251 nM
- Cn1cncc1CC[C@H]1C[C@@H](n2ccc3c(N)ncnc32)[C@H](O)[C@@H]1O [Compound 38] — 2.5-fold lower, 794 nM
- Nc1cccc(/C=C/[C@H]2C[C@@H](n3ccc4c(N)ncnc43)[C@H](O)[C@@H]2O)n1 [Compound 37] — 2.5-fold lower, 794 nM
- Nc1cc2cccc(CCC[C@H]3C[C@@H](n4ccc5c(N)ncnc54)[C@H](O)[C@@H]3O)c2cn1 [Compound 41] — 5-fold lower, 398 nM
- Nc1ncnc2c1ccn2[C@@H]1C[C@H](CCCc2cccnc2)[C@@H](O)[C@H]1O [Compound 42] — 6.3-fold lower, 316 nM
- Nc1ncnc2c1ccn2[C@@H]1C[C@H](CCCc2ccccn2)[C@@H](O)[C@H]1O [Compound 46] — higher, > 2510 nM
- Nc1ncnc2c1ccn2[C@@H]1C[C@H](CCc2cn[nH]c2)[C@@H](O)[C@H]1O [Compound 68] — 1.6-fold lower, 1260 nM
- Nc1ccc2cccc(CCC[C@H]3C[C@@H](n4ccc5c(N)ncnc54)[C@H](O)[C@@H]3O)c2n1 [Compound 50] — 63-fold lower, 31.6 nM
